Source: ChEMBL document CHEMBL1130997, “A 3D-QSAR study on ginkgolides and their analogues with comparative molecular field analysis” (Bioorg Med Chem Lett, 1998)

What follows are compounds tested against T1, Platelet-activating factor receptor (Homo sapiens, UniProt P25105) (assay: Compound was evaluated for anti-platelet activating factor potency).
T1 sequence (P25105 whole entry): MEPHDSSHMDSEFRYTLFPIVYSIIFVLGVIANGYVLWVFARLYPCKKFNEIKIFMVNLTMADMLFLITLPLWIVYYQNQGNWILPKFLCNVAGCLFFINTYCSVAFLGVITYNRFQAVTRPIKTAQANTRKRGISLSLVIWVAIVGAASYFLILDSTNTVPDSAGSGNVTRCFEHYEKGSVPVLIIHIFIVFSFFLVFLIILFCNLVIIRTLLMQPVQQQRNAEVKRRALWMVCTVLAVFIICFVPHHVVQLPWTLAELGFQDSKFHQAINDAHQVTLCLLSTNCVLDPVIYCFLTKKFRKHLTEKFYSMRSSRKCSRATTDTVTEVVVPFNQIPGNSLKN

| IC50 | Compound |
| --- | --- |
| 128 nM | C[C@@H]1C(=O)O[C@H]2[C@H](O)[C@@]34[C@H]5C[C@@H](C(C)(C)C)[C@]36[C@@H](OC(=O)[C@@H]6O)O[C@@]4(C(=O)O5)[C@@]12O [GINKOLIDE B] |
| 40.4 nM | CC1C(=O)O[C@H]2[C@H](O)C34[C@H]5C[C@@H](C(C)(C)C)[C@]36[C@@H](OC(=O)[C@@H]6OCOCc3ccccc3)O[C@@]4(C(=O)O5)[C@@]12O (stereo partly drawn) |
| 28.9 nM | C[C@@H]1C(=O)O[C@H]2[C@H](OCc3ccc(Cl)cc3)C34[C@H]5C[C@@H](C(C)(C)C)[C@]36[C@@H](OC(=O)[C@@H]6O)O[C@@]4(C(=O)O5)[C@@]12O (stereo partly drawn) |
| 58.8 nM | C[C@@H]1C(=O)O[C@H]2[C@H](OCOCc3ccccc3)C34[C@H]5C[C@@H](C(C)(C)C)[C@]36[C@@H](OC(=O)[C@@H]6O)O[C@@]4(C(=O)O5)[C@@]12O (stereo partly drawn) |

Each compound was assayed against T1, Platelet-activating factor receptor (assay: Binding affinity against platelet activating factor).

| Binding affinity | Compound |
| --- | --- |
| 0.3 µM | COCO[C@@H]1C(=O)OCC12C13[C@H]4C[C@@]2(C(C)(C)C)O[C@]1(C[C@@H](Cl)[C@@H]3OCOC)C(=O)O4 (stereo partly drawn) |
| 120 µM | CO[C@H]1C[C@@]23[C@@H](O1)O[C@@]14CC=CC21[C@@H](C[C@H]3C(C)(C)C)OC4=O (stereo partly drawn) |
| 0.7 µM | C[C@@H]1C(=O)O[C@H]2[C@H](O)C34[C@H]5C[C@H]6C(C)(C)C[C@@]7(O)C(=O)O[C@@H](O[C@@]3(C(=O)O5)[C@@]12O)C647 (stereo partly drawn) |
| 1.1 µM | CC(C)(C)[C@@]12C[C@H]3OC(=O)[C@@]4(C[C@@H](Cl)CC34C13COC(=O)[C@H]3O)O2 (stereo partly drawn) |
| 76 µM | CC(C)(C)[C@]12C[C@H]3OC(=O)[C@@]4(CCCC34[C@@]13COC(=O)[C@@H]3O)O2 |
| 0.6 µM | C[C@@H]1C(=O)O[C@H]2[C@H](O)[C@@]34[C@H]5C[C@@H](C(C)(C)C)[C@]36[C@@H](OC(=O)[C@@H]6O)O[C@@]4(C(=O)O5)[C@@]12O [GINKOLIDE B] |
| 13 µM | CC(C)(C)[C@@]12C[C@H]3OC(=O)[C@@]4(CCCC34C13COC(=O)[C@H]3O)O2 (stereo partly drawn) |
| 0.6 µM | COCO[C@@H]1C(=O)O[C@H]2O[C@@]34C[C@@H](Br)[C@H](OCOC)C35[C@@H](C[C@@H](C(C)(C)C)C215)OC4=O (stereo partly drawn) |
| 130 µM | C[C@@H]1C(=O)O[C@H]2CC34[C@@H]5OC(=O)[C@]3(O[C@@H]3OC(=O)[C@H](O)C34[C@H](C(C)(C)C)[C@H]5O)[C@]21O (stereo partly drawn) |
| 38 µM | CC(C)(C)[C@]12C[C@H]3OC(=O)[C@@]4(C[C@@H](Cl)[C@H](Cl)C34[C@@]13COC(=O)[C@@H]3O)O2 |
| 11 µM | CC(=O)O[C@@H]1C(=O)O[C@H]2O[C@@]34CCCC35[C@@H](C[C@@H](C(C)(C)C)C215)OC4=O (stereo partly drawn) |
| 2.9 µM | CC(C)(C)[C@@H]1C[C@H]2OC(=O)[C@@]34CC5OC6C[C@@]1([C@@H](O6)O3)[C@@]24C5Br (stereo partly drawn) |
| 18 µM | CC(C)(C)[C@@]12C[C@H]3OC(=O)[C@@]4(CCCC34C13COC(=O)C3=O)O2 (stereo partly drawn) |
| 0.3 µM | COCO[C@@H]1C(=O)OCC12C13[C@H]4C[C@@]2(C(C)(C)C)O[C@]1(C[C@@H](Cl)[C@@H]3Cl)C(=O)O4 (stereo partly drawn) |
| 9.2 µM | CC1(C)C[C@@]2(O)C(=O)O[C@H]3O[C@@]45CCCC46[C@@H](C[C@@H]1C362)OC5=O (stereo partly drawn) |
| 9.4 µM | COCO[C@H]1C(=O)OC[C@@]12C13CCC[C@]14O[C@@]2(C(C)(C)C)C[C@H]3OC4=O |
| 1.1 µM | CC(C)(C)[C@@]12C[C@H]3OC(=O)[C@@]4(C[C@@H](Cl)[C@H](Cl)C34C13COC(=O)[C@H]3O)O2 (stereo partly drawn) |
| 1.3 µM | CC(C)(C)[C@@H]1C[C@H]2OC(=O)[C@]34C[C@@H](Cl)[C@H](Cl)C23[C@@]12[C@@H](OC(=O)[C@@H]2O)O4 (stereo partly drawn) |
| 80 µM | CC(C)(C)[C@@H]1C[C@H]2OC(=O)[C@]34CC=CC23[C@]12CC(=O)O[C@H]2O4 (stereo partly drawn) |
| 13 µM | CC(=O)O[C@H]1C(=O)OC[C@@]12C13CCC[C@]14O[C@@]2(C(C)(C)C)C[C@H]3OC4=O |
| 21 µM | COCO[C@@H]1C(=O)O[C@H]2O[C@@]34CCCC35[C@@H](C[C@@H](C(C)(C)C)[C@@]215)OC4=O (stereo partly drawn) |

| Compound | Binding affinity |
| --- | --- |
| C[C@@H]1C(=O)O[C@H]2CC34[C@H]5C[C@@H](C(C)(C)C)C36[C@@H](OC(=O)[C@@H]6O)O[C@@]4(C(=O)O5)[C@]21O (stereo partly drawn) | 17.8 µM |
| C[C@@H]1C(=O)O[C@H]2[C@H](O)C34[C@@H]5OC(=O)[C@]3(O[C@@H]3OC(=O)[C@H](O)C34[C@H](C(C)(C)C)[C@H]5O)[C@@]12O (stereo partly drawn) | 17 µM |
| C[C@@H]1C(=O)O[C@H]2CC34[C@H]5C[C@@H](C(C)(C)C)C36C(=O)C(=O)O[C@H]6O[C@@]4(C(=O)O5)[C@]21O (stereo partly drawn) | 3.9 µM |
